How the values were obtained:
[1] = test system: SK-N-MC neuroepithelioma cells; assay: 3H-leucine incorporation by SK-N-MC cells; type: cell-based, human; settings: 20 h incubation then 2 h label; Mean ± SD, 4 experiments
Protocol: After a 20 h incubation of the SK-N-MC cells with a selection of analogues, ^3H-thymidine, ^3H-leucine, or ^3H-uridine (1 μCi/ml) was added for 2 h at 37° C. The cells were detached from the 96 well plate using 1 mM EDTA in Ca(II)/Mg(II)-free PBS and collected and washed using a cell harvester (Tomtec Harvester 96, Linbrook, Queensland, Australia). Radioactivity was measured on a P-scintillation counter (LKB Wallace, Turku, Finland).

GADD45 and WAF1 mRNA = assay: Northern blot of WAF1 and GADD45 mRNA expression in SK-N-MC cells; type: cell-based, human; settings: DFO 100 μM, other chelators 25 μM, 20 h at 37° C. (FIG. 7)
Protocol: FIG. 7. […] Northern blotting was performed using standard procedures (see Example 6).
Northern blot analysis was performed by isolating total RNA using the Total RNA Isolation Reagent (Advanced Biotechnologies Ltd, Surrey, United Kingdom). The membranes were hybridised with probes specific for human WAF1, GADD45, and β-actin. The WAF1 probe consisted of a 1 kb fragment from pSXV (ATCC; Cat. No. 79928). The GADD45 probe consisted of a 760 bp fragment from human GADD45 cDNA cloned into pHu145B2 (kindly supplied by Dr. Albert Fornace, National Cancer Institute, NIH, Maryland). The β-actin probe consisted of a 1.4 kb fragment from human β-actin cDNA cloned into pBluescript SK− (ATCC; Cat. No. 37997).

Bcl-2 = assay: Mitochondrial Bcl-2 protein level in M109 cells; type: cell-based, mouse; settings: 1 μM
Protocol: Considering the roles of Bcl-2 and Bax in the mitochondrial pathway of apoptosis and their role in h-cytc release, ^8,11,12 the effect of Dp44mT (1 μM) on the protein levels of these molecules was assessed (FIG. 15B).

[2] = test system: holo-cytochrome c (h-cytc); assay: Release of holo-cytochrome c from mitochondria into cytosol of M109 cells; type: cell-based, mouse; settings: 1 μM, 2 h exposure (FIG. 15A)
Protocol: Due to the importance of h-cytc release from the mitochondrion on apoptosis induction,^8 further studies investigated the effect of Dp44mT on this process (FIG. 15A). Preparation of cytosolic and mitochondrial fractions and western blotting were carried out using standard techniques.^27 There was very little h-cytc expression in the cytosolic fractions of control M109 cells (i.e., at 0 h), with the greatest amount of h-cytc being found in the mitochondrion at this time (FIG. 15A). […] The release of h-cytc into the cytosol plateaued after a 4 h incubation with Dp44mT and then decreased to that found in control cells after 24 and 48 h. This increase in cytosolic h-cytc correlated with the loss from the mitochondrion (FIG. 15A). The near complete disappearance of h-cytc from the cytosol at 24 and 48 h may be due to its release from cells or its degradation^28 (FIG. 15A).

active caspase-9 = assay: Protein level of active caspase-9 in M109 cells (western blotting); type: cell-based, mouse; settings: 1 μM
Protocol: FIG. 14. Effect of Dp44mT (1 μM) on the (A,B) protein levels of active caspase-3, -8 and -9, and (C,D) the activity of caspase-3, -8 and -9 in cultured M109 cells in the absence (C) and presence (D) of cell-permeable caspase inhibitors. (A) Caspase-3, -8, and -9 levels after Dp44mT treatment at indicated times as detected by western blotting (upper panel). The anti-β-actin antibody was used to ensure equal protein loading (lower panel). (B) Densitometric analysis of the expression of caspase-3, -8, and -9 as a function of time normalized to β-actin (C) Caspase activity induced by Dp44mT (1 μM) at 0-48 h was expressed as a percentage of the 0 h time value. (D) Cell-permeable inhibitors of caspase-3, -8 or -9 at 1 μM prevented activation of these enzymes when incubated with Dp44mT (1 μM) for 48 h. Results are mean±SEM of three separate experiments.
Rabbit anti-active caspase-3 antibody, rabbit anti-active caspase-8 antibody and Annexin V fluorescein isothiocyanate (FITC) were from BD PharMingen (San Diego, Calif., USA). Anti-h-cytc MoAb was from R&D Systems Minneapolis, Minn., USA). Rabbit anti-active caspase-9 antibody, mouse anti-Bcl-2 and mouse anti-Bax antibodies were obtained from Santa Cruz (Santa Cruz, Calif., USA). Mouse anti-mouse β-actin antibody, horseradish peroxidase-conjugated antirabbit, and anti-mouse IgG were from Sigma Chemical Co. (St. Louis, Mo., USA).
To determine the role of caspase activation in Dp44mT-induced apoptosis in M109 cells, protein levels of active caspase-3, -8 and -9 (FIG. 14A,B) and their enzymatic activity (FIG. 14C,D) were examined.

intracellular ROS = assay: Intracellular ROS assay (DCF-DA, flow cytometry), M109 cells; type: cell-based, mouse; settings: 1 μM
Protocol: Intracellular ROS generation was assessed using the cell-permeable dye 2′,7′-dichlorofluorescein-diacetate (DCF-DA) (Sigma). DCF-DA readily diffuses into cells and becomes highly fluorescent when oxidised by O2^•−, H2O2, or OH^−.^29 Cellular fluorescence intensity is directly proportional to the level of intracellular ROS.^29 M109 cells (1×10^5 cells/well) were incubated with or without 1 μM Dp44mT for 0-48 h or 50 μM H2O2 (positive control) for 10 min at 37° C. The cells were then incubated with DCF-DA (5 μM) for 20 min at 37° C., washed twice, and detached from the culture plates. The fluorescence of oxidised DCF in cells was measured using flow cytometry.^29)
To test whether induction of h-cytc release from the mitochondrion (FIG. 15A) and the imbalance of Bcl-2/Bax expression (FIG. 15B) was due to the presence of ROS, intracellular ROS were measured by flow cytometry using the DCFH-DA probe which becomes fluorescent when oxidised by O2^•−, H2O2, or OH^−.^29 Incubation of M109 cells with Dp44mT (1 μM) increased the levels of oxidised probe as a function of time. After 2 h, a 25±10% increase in oxidised DCFH-DA fluorescence was found compared to the 0 h time point, and this increased to 486±96% after 48 h (FIG. 15C). For comparison, a 10 min incubation with the positive control, H2O2 (50 μM), increased fluorescence to 1312±46% of the 0 h time point (FIG. 15C)

M109 lung carcinoma = assay: In situ TUNEL assay of tumour samples from treated mice; type: in vivo, mouse; settings: 0.4 mg/kg, compared to vehicle-treated controls (FIG. 12B)

SMILES	3H-Leucine Incorporation [1]	GADD45 and WAF1 mRNA expression (GADD45 and WAF1 mRNA)	Bcl-2 protein level (Bcl-2; 2 h)	Bcl-2 protein level (Bcl-2; 48 h)	h-cytc release from the mitochondrion [2]	caspase-9 protein level (active caspase-9; 2 h)	caspase-9 protein level (active caspase-9; 6 h)	caspase-9 protein level (active caspase-9; 12 h)	caspase-9 protein level (active caspase-9; 24 h)	caspase-9 protein level (active caspase-9; 48 h)	increase in oxidised DCFH-DA fluorescence compared to the 0 h time point (intracellular ROS; 2 h)	oxidised DCFH-DA fluorescence (increased to) (intracellular ROS; 48 h)	apoptotic cell death in tumour samples (M109 lung carcinoma)
CC(=O)N(O)CCCCCNC(=O)CCC(=O)N(O)CCCCCNC(=O)CCC(=O)N(O)CCCCCN [DFO, desferrioxamine]	9 ± 1 % Control	up-regulation	–	–	–	–	–	–	–	–	–	–	–
CN(C)C(=S)NN=C(c1ccccn1)c1ccccn1 [Dp44mT, di-2-pyridylketone 4,4-dimethyl-3-thiosemicarbazone]	–	–	69 % of the 0 h time point	37 % of the 0 h time point	h-cytc was found in the cytosolic fraction	171 % of the control	280 % of the control	280 % of the control	about 4 fold that of control cells	greater than 10 fold that of control cells	25±10%	486±96%	increased apoptotic cell death

— patent US20060252798A1, “Metal ion chelators and therapeutic use thereof” (priority 2003, published 2006)
